The values that follow come from patent publication US9978954B2, “Benzobis (thiadiazole) derivative, ink comprising same, and organic electronic device comprising same” (UBE INDUSTRIES, LTD., priority 2013, dated 2018).

Where only a bound is given, the exact number is not on record here.

The nature of the data set: Evaluation of solubility in organic solvents (visual observation of complete dissolution). The data set is classed as physicochemical. The procedure:
[Evaluation of Solubility]
The evaluation of the solubility of the synthesized compound was conducted by the following method.
About 2-3 mg of the compound was precisely weighed, and each solvent was added to the compound such that a predetermined concentration of the solute (0.5 wt %, 0.3 wt %, 0.2 wt %, 0.1 wt %, 0.05 wt %, or 0.03 wt %) was reached. The resultant mixture was stirred for 30 minutes at a predetermined temperature, and then it was evaluated by visual appearance observation whether or not the solute (synthesized compound) was completely dissolved in the solvent, which was the result of the evaluation of the solubility. As the solvent, chloroform (boiling point 61° C.), toluene (boiling point 111° C.), xylene (boiling point 144° C.), mesitylene (boiling point 165° C.), chlorobenzene (boiling point 130° C.), para-chlorotoluene (boiling point 162° C.), and ortho-dichlorobenzene (boiling point 181° C.) were used.

On to “4,8-bis[5-(4-cyano-3-(2-methylhexyl)phenyl)thiophene-2-yl]benzo[1,2-c:4,5-c′]bis[1,2,5]thiadiazole [Compound (C29)]”, for which the “solubility (solute concentration completely dissolved)” value (shortened to “solubility”) is recorded as no less than 0.3 wt % (1-methylnaphthalene, 60° C.) and no less than 0.1 wt % (chloroform, 60° C.).
In the case of `FC(F)(F)Oc1cccc(-c2ccc(-c3c4c(c(-c5ccc(-c6cccc(OC(F)(F)F)c6)s5)c5nsnc35)N=S=N4)s2)c1` [Compound (C1), 4,8-bis[5-(3-(trifluoromethoxy)phenyl)thiophene-2-yl]benzo[1,2-c:4,5-c′]bis[1,2,5]thiadiazole], the “solubility” value is, setting by setting: (mesitylene, 80° C.) no less than 0.1 wt %; (mesitylene, 130° C.) no less than 0.3 wt %; (toluene, 100° C.) no less than 0.1 wt %.
Regarding `FC(F)(F)c1cccc(-c2ccc(-c3c4c(c(-c5ccc(-c6cccc(C(F)(F)F)c6)s5)c5nsnc35)N=S=N4)s2)c1` [Compound (C2), 4,8-bis[5-(3-(trifluoromethyl)phenyl)thiophene-2-yl]benzo[1,2-c:4,5-c′]bis[1,2,5]thiadiazole], the “solubility” value was no less than 0.1 wt % (chlorobenzene, 80° C.); no less than 0.3 wt % (chlorobenzene, 100° C.); no less than 0.03 wt % (mesitylene, 25° C.); no less than 0.1 wt % (mesitylene, 80° C.); no less than 0.1 wt % (ortho-dichlorobenzene, 80° C.); no less than 0.5 wt % (ortho-dichlorobenzene, 100° C.). Also, the “solubility” value reads like this: (toluene, 25° C.) no less than 0.03 wt %; (toluene, 100° C.) no less than 0.1 wt %.
In the case of `FC(F)(F)c1cc(-c2ccc(-c3c4c(c(-c5ccc(-c6cc(C(F)(F)F)cc(C(F)(F)F)c6)s5)c5nsnc35)N=S=N4)s2)cc(C(F)(F)F)c1` [Compound (C3), 4,8-bis[5-(3,5-bis(trifluoromethyl)phenyl)thiophene-2-yl]benzo[1,2-c:4,5-c′]bis[1,2,5]thiadiazole], the “solubility” value is on record as no less than 0.1 wt % (chlorobenzene, 130° C.); no less than 0.1 wt % (mesitylene, 130° C.); no less than 0.1 wt % (ortho-dichlorobenzene, 100° C.).
Regarding `CCCCCCCCCCC(F)(F)c1cccc(-c2ccc(-c3c4c(c(-c5ccc(-c6cccc(C(F)(F)CCCCCCCCCC)c6)s5)c5nsnc35)N=S=N4)s2)c1` [Compound (C4), 4,8-bis[5-(3-(1,1-difluoroundecyl)phenyl)thiophene-2-yl]benzo[1,2-c:4,5-c′]bis[1,2,5]thiadiazole], the “solubility” value by setting is: (chlorobenzene, 25° C.) no less than 0.03 wt %; (mesitylene, 25° C.) no less than 0.03 wt %; (mesitylene, 60° C.) no less than 0.1 wt %; (mesitylene, 100° C.) no less than 0.5 wt %; (ortho-dichlorobenzene, 25° C.) no less than 0.03 wt %; (toluene, 25° C.) no less than 0.03 wt %. Besides, the “solubility” value is no less than 0.1 wt % (toluene, 60° C.) and no less than 0.5 wt % (toluene, 100° C.).
On to `FC(F)(F)Sc1cccc(-c2ccc(-c3c4c(c(-c5ccc(-c6cccc(SC(F)(F)F)c6)s5)c5nsnc35)N=S=N4)s2)c1` [Compound (C6), 4,8-bis[5-(3-((trifluoromethyl)thio)phenyl)thiophene-2-yl]benzo[1,2-c:4,5-c′]bis[1,2,5]thiadiazole], for which the “solubility” value (chlorobenzene, 80° C.) was no less than 0.1 wt %; the “solubility” value (chlorobenzene, 130° C.) is given as no less than 0.5 wt %; the “solubility” value (mesitylene, 80° C.) is on record as no less than 0.1 wt %; the “solubility” value (mesitylene, 130° C.) is no less than 0.3 wt %; the “solubility” value (ortho-dichlorobenzene, 80° C.) is recorded as no less than 0.1 wt %; the “solubility” value (ortho-dichlorobenzene, 130° C.) is no less than 0.5 wt %. The “solubility” value (toluene, 80° C.) was no less than 0.1 wt %.
For `CCCCCCc1ccc(-c2ccc(-c3c4c(c(-c5ccc(-c6ccc(CCCCCC)c(C#N)c6)s5)c5nsnc35)N=S=N4)s2)cc1C#N` [Compound (C7), 4,8-bis[5-(3-cyano-4-hexylphenyl)thiophene-2-yl]benzo[1,2-c:4,5-c′]bis[1,2,5]thiadiazole], the “solubility” value is no less than 0.1 wt % (chlorobenzene, 25° C.); no less than 0.5 wt % (chlorobenzene, 60° C.); no less than 0.1 wt % (mesitylene, 60° C.); no less than 0.5 wt % (mesitylene, 80° C.); no less than 0.1 wt % (toluene, 60° C.); no less than 0.5 wt % (toluene, 100° C.).
For the molecule `CCCCCCc1cc(-c2ccc(-c3c4c(c(-c5ccc(-c6ccc(C#N)c(CCCCCC)c6)s5)c5nsnc35)N=S=N4)s2)ccc1C#N` [Compound (C8), 4,8-bis[5-(4-cyano-3-hexylphenyl)thiophene-2-yl]benzo[1,2-c:4,5-c′]bis[1,2,5]thiadiazole], the “solubility” value is no less than 0.03 wt % (chlorobenzene, 25° C.); no less than 0.05 wt % (chloroform, 60° C.); no less than 0.2 wt % (chloroform, 80° C.); no less than 0.03 wt % (ortho-dichlorobenzene, 25° C.); no less than 0.3 wt % (para-chlorotoluene, 100° C.).
As for `CCCCCCc1ccc(-c2ccc(-c3c4c(c(-c5ccc(-c6ccc(CCCCCC)c(C(F)(F)F)c6)s5)c5nsnc35)N=S=N4)s2)cc1C(F)(F)F` [Compound (C9), 4,8-bis[5-(4-hexyl-3-(trifluoromethyl)phenyl)thiophene-2-yl]benzo[1,2-c:4,5-c′]bis[1,2,5]thiadiazole], the “solubility” value reads like this: (chlorobenzene, 25° C.) no less than 0.03 wt %; (mesitylene, 25° C.) no less than 0.03 wt %; (mesitylene, 60° C.) no less than 0.1 wt %; (mesitylene, 80° C.) no less than 0.5 wt %; (ortho-dichlorobenzene, 25° C.) no less than 0.03 wt %; (toluene, 25° C.) no less than 0.03 wt %. Also, the “solubility” value by setting is: (toluene, 60° C.) no less than 0.1 wt %; (toluene, 80° C.) no less than 0.5 wt %.
Consider `CCCCCCc1cc(-c2ccc(-c3c4c(c(-c5ccc(-c6ccc(C(F)(F)F)c(CCCCCC)c6)s5)c5nsnc35)N=S=N4)s2)ccc1C(F)(F)F` [Compound (C10), 4,8-bis[5-(3-hexyl-4-(trifluoromethyl)phenyl)thiophene-2-yl]benzo[1,2-c:4,5-c′]bis[1,2,5]thiadiazole], for which the “solubility” value by setting is: (chlorobenzene, 25° C.) no less than 0.03 wt %; (chlorobenzene, 60° C.) no less than 0.1 wt %; (chlorobenzene, 80° C.) no less than 0.3 wt %; (mesitylene, 25° C.) no less than 0.03 wt %; (ortho-dichlorobenzene, 25° C.) no less than 0.03 wt %; (ortho-dichlorobenzene, 60° C.) no less than 0.1 wt %. Further, the “solubility” value (ortho-dichlorobenzene, 100° C.) is listed as no less than 0.5 wt % and the “solubility” value (toluene, 25° C.) is no less than 0.03 wt %.
In the case of `CCCCCCc1ccc(-c2ccc(-c3c4c(c(-c5ccc(-c6ccc(CCCCCC)c(OC(F)(F)F)c6)s5)c5nsnc35)N=S=N4)s2)cc1OC(F)(F)F` [Compound (C11), 4,8-bis[5-(4-hexyl-3-(trifluoromethoxy)phenyl)thiophene-2-yl]benzo[1,2-c:4,5-c′]bis[1,2,5]thiadiazole], the “solubility” value runs as follows: (chlorobenzene, 60° C.) no less than 0.1 wt %; (chlorobenzene, 80° C.) no less than 0.5 wt %; (mesitylene, 80° C.) no less than 0.1 wt %; (mesitylene, 100° C.) no less than 0.5 wt %; (ortho-dichlorobenzene, 60° C.) no less than 0.1 wt %; (ortho-dichlorobenzene, 80° C.) no less than 0.5 wt %. For the same molecule, the “solubility” value (toluene, 60° C.) was no less than 0.1 wt % and the “solubility” value (toluene, 80° C.) is no less than 0.5 wt %.
Turning to `CCCCCCc1cc(-c2ccc(-c3c4c(c(-c5ccc(-c6ccc(OC(F)(F)F)c(CCCCCC)c6)s5)c5nsnc35)N=S=N4)s2)ccc1OC(F)(F)F` [Compound (C12)], the “solubility” value is recorded as no less than 0.1 wt % (chlorobenzene, 60° C.); no less than 0.5 wt % (chlorobenzene, 80° C.); no less than 0.1 wt % (mesitylene, 80° C.); no less than 0.5 wt % (mesitylene, 130° C.); no less than 0.1 wt % (ortho-dichlorobenzene, 60° C.); no less than 0.5 wt % (ortho-dichlorobenzene, 80° C.).
Regarding `CCCCCCCc1cc(-c2ccc(-c3c4c(c(-c5ccc(-c6ccc(C#N)c(CCCCCCC)c6)s5)c5nsnc35)N=S=N4)s2)ccc1C#N` [Compound (C13), 4,8-bis[5-(4-cyano-3-heptylphenyl)thiophene-2-yl]benzo[1,2-c:4,5-c′]bis[1,2,5]thiadiazole], the “solubility” value (chlorobenzene, 80° C.) is given as no less than 0.3 wt %; the “solubility” value (chloroform, 25° C. (room temperature)) is no less than 0.2 wt %; the “solubility” value (ortho-dichlorobenzene, 80° C.) was no less than 0.3 wt %; the “solubility” value (para-chlorotoluene, 80° C.) was no less than 0.3 wt %.
